# Key:
# Details in all cases: 72 h
# [1] = tested on: myeloid leukemia patient primary cells Pat.13; experiment: area under dose-response curve (viability, 1 nM-10 uM) (fraction (0-1)); higher = more sensitive
# Method: (§1)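 AUC (0–1, higher = more sensitive) of the 5-point dose–response (1 nM–10 µM, 72 h, CellTiter-Glo) in primary AML/CML patient mononuclear cells. 0.030103 is the floor for inactive compounds.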
# [2] = tested on: myeloid leukemia patient primary cells Pat.10; experiment: as above
# Method: as §1
# [3] = tested on: myeloid leukemia patient primary cells Pat.1; experiment: as above
# Method: as §1
# [4] = tested on: myeloid leukemia patient primary cells Pat.12; experiment: as above
# Method: as §1
# [5] = tested on: myeloid leukemia patient primary cells Pat.4; experiment: as above
# Method: as §1
# [6] = tested on: myeloid leukemia patient primary cells Pat.5; experiment: as above
# Method: as §1
# [7] = tested on: myeloid leukemia patient primary cells Pat.14; experiment: as above
# Method: as §1
# [8] = tested on: myeloid leukemia patient primary cells Pat.6; experiment: as above
# Method: as §1
# [9] = tested on: myeloid leukemia patient primary cells Pat.11; experiment: as above
# Method: as §1
# [10] = tested on: myeloid leukemia patient primary cells Pat.7; experiment: as above
# Method: as §1
# [11] = tested on: myeloid leukemia patient primary cells Pat.9; experiment: as above
# Method: as §1
# [12] = tested on: myeloid leukemia patient primary cells Pat.3; experiment: as above
# Method: as §1
# [13] = tested on: myeloid leukemia patient primary cells Pat.8; experiment: as above
# Method: as §1
# [14] = tested on: myeloid leukemia patient primary cells Pat.15; experiment: as above
# Method: as §1
# [15] = tested on: myeloid leukemia patient primary cells Pat.2; experiment: as above
# Method: as §1
# [16] = tested on: myeloid leukemia patient primary cells Pat.13; experiment: cell viability (% survival relative to DMSO control); higher = less cytotoxic
# Outline: (§2)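 Thawed mononuclear cells from AML or CML patients were purified on Ficoll and cultured for 72 h in RPMI 1640 with 10% FBS, at 10,000 cells/well, on 384-well plates carrying 70 pre-printed compounds at 1–10,000 nM in five tenfold steps, in duplicate. Viability came from CellTiter-Glo, normalised against DMSO and against 10 μM proteasome inhibitor. Any area under the curve given was derived from log-logistic curve fits in the drc and PharmacoGx R packages, and these fits had four parameters.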
# [17] = tested on: myeloid leukemia patient primary cells Pat.10; experiment: as above
# Outline: as §2
# [18] = tested on: myeloid leukemia patient primary cells Pat.1; experiment: as above
# Outline: as §2
# [19] = tested on: myeloid leukemia patient primary cells Pat.12; experiment: as above
# Outline: as §2
# [20] = tested on: myeloid leukemia patient primary cells Pat.4; experiment: as above
# Outline: as §2
# [21] = tested on: myeloid leukemia patient primary cells Pat.5; experiment: as above
# Outline: as §2
# [22] = tested on: myeloid leukemia patient primary cells Pat.14; experiment: as above
# Outline: as §2
# [23] = tested on: myeloid leukemia patient primary cells Pat.6; experiment: as above
# Outline: as §2
# [24] = tested on: myeloid leukemia patient primary cells Pat.11; experiment: as above
# Outline: as §2
# [25] = tested on: myeloid leukemia patient primary cells Pat.7; experiment: as above
# Outline: as §2
# [26] = tested on: myeloid leukemia patient primary cells Pat.9; experiment: as above
# Outline: as §2
# [27] = tested on: myeloid leukemia patient primary cells Pat.3; experiment: as above
# Outline: as §2
# [28] = tested on: myeloid leukemia patient primary cells Pat.8; experiment: as above
# Outline: as §2
# [29] = tested on: myeloid leukemia patient primary cells Pat.15; experiment: as above
# Outline: as §2
# [30] = tested on: myeloid leukemia patient primary cells Pat.2; experiment: as above
# Outline: as §2
smiles,measurement,setting,value
CN(C)C(=O)n1nnnc1Cc1ccc(-c2ccccc2)cc1,area under dose-response curve,[1],0.105
same,area under dose-response curve,[2],0.298
same,area under dose-response curve,[3],0.124
same,area under dose-response curve,[4],0.044
same,area under dose-response curve,[5],0.115
same,area under dose-response curve,[6],0.798
same,area under dose-response curve,[7],0.277
same,area under dose-response curve,[8],0.0748
same,area under dose-response curve,[9],0.0778
same,area under dose-response curve,[10],0.331
same,area under dose-response curve,[11],0.766
same,area under dose-response curve,[12],0.278
same,area under dose-response curve,[13],0.132
same,area under dose-response curve,[14],0.0943
same,area under dose-response curve,[15],0.0497
same,cell viability,[16]; 1 nM,84.1%
same,cell viability,[16]; 10 nM,60.2%
same,cell viability,[16]; 100 nM,92.1%
same,cell viability,[16]; 1000 nM,87.3%
same,cell viability,[16]; 10000 nM,7.43%
same,cell viability,[17]; 1 nM,96.5%
same,cell viability,[17]; 10 nM,75.2%
same,cell viability,[17]; 100 nM,> 100%
same,cell viability,[17]; 1000 nM,20.7%
same,cell viability,[17]; 10000 nM,15.5%
same,cell viability,[18]; 1 nM,98.5%
same,cell viability,[18]; 10 nM,74.4%
same,cell viability,[18]; 100 nM,89.4%
same,cell viability,[18]; 1000 nM,87.9%
same,cell viability,[18]; 10000 nM,4.27%
same,cell viability,[19]; 1 nM,94.7%
same,cell viability,[19]; 10 nM,91.7%
same,cell viability,[19]; 100 nM,90.7%
same,cell viability,[19]; 1000 nM,93%
same,cell viability,[19]; 10000 nM,41.2%
same,cell viability,[20]; 1 nM,97.2%
same,cell viability,[20]; 10 nM,81%
same,cell viability,[20]; 100 nM,84.8%
same,cell viability,[20]; 1000 nM,> 100%
same,cell viability,[20]; 10000 nM,2.63%
same,cell viability,[21]; 1 nM,60.8%
same,cell viability,[21]; 10 nM,1.18%
same,cell viability,[21]; 100 nM,63%
same,cell viability,[21]; 1000 nM,1.33%
same,cell viability,[21]; 10000 nM,2.24%
same,cell viability,[22]; 1 nM,97.8%
same,cell viability,[22]; 10 nM,63.7%
same,cell viability,[22]; 100 nM,95.5%
same,cell viability,[22]; 1000 nM,32%
same,cell viability,[22]; 10000 nM,0.671%
same,cell viability,[23]; 1 nM,> 100%
same,cell viability,[23]; 10 nM,70.8%
same,cell viability,[23]; 100 nM,97.7%
same,cell viability,[23]; 1000 nM,> 100%
same,cell viability,[23]; 10000 nM,21.8%
same,cell viability,[24]; 1 nM,> 100%
same,cell viability,[24]; 10 nM,87.4%
same,cell viability,[24]; 100 nM,91.7%
same,cell viability,[24]; 1000 nM,93.6%
same,cell viability,[24]; 10000 nM,22%
same,cell viability,[25]; 1 nM,> 100%
same,cell viability,[25]; 10 nM,38.7%
same,cell viability,[25]; 100 nM,73.7%
same,cell viability,[25]; 1000 nM,24.8%
same,cell viability,[25]; 10000 nM,13.2%
same,cell viability,[26]; 1 nM,64%
same,cell viability,[26]; 10 nM,5.6%
same,cell viability,[26]; 100 nM,60.2%
same,cell viability,[26]; 1000 nM,9.03%
same,cell viability,[26]; 10000 nM,0.492%
same,cell viability,[27]; 1 nM,> 100%
same,cell viability,[27]; 10 nM,64.8%
same,cell viability,[27]; 100 nM,82.7%
same,cell viability,[27]; 1000 nM,30.3%
same,cell viability,[27]; 10000 nM,2.63%
same,cell viability,[28]; 1 nM,99.4%
same,cell viability,[28]; 10 nM,97.5%
same,cell viability,[28]; 100 nM,71.9%
same,cell viability,[28]; 1000 nM,85.5%
same,cell viability,[28]; 10000 nM,4.49%
same,cell viability,[29]; 1 nM,94.8%
same,cell viability,[29]; 10 nM,96%
same,cell viability,[29]; 100 nM,96.2%
same,cell viability,[29]; 1000 nM,89.5%
same,cell viability,[29]; 10000 nM,29.8%
same,cell viability,[30]; 1 nM,97.7%
same,cell viability,[30]; 10 nM,78.6%
same,cell viability,[30]; 100 nM,> 100%
same,cell viability,[30]; 1000 nM,99.1%
same,cell viability,[30]; 10000 nM,37.3%

# Reference: the supplement of paper PMC8671470
